This is an account of results in patent US20110053897A1 (IRM LLC, priority 2009, published 2011).

The target in the first assay is T1, Syk kinase (Homo sapiens, UniProt P43405).
T1 construct: purchased
As to the kind of experiment: Syk kinase inhibition, Caliper LabChip off-chip mobility-shift kinase assay. It counts as biochemical. The settings on record: Caliper LabChip assay; read-out: Syk Enzyme IC50. In outline:
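Purified Syk pre-incubated 15 min with compound in 100 mM HEPES pH 7.5, 1 mM DTT, 10 mM MgCl2 or MnCl2, 0.002% Brij-35, then 1.5 μM fluorescein peptide and ATP at apparent KM added; 1–1.5 h at room temperature, 4% DMSO, EDTA stop. Microfluidic mobility-shift product/substrate conversion gave % inhibition; IC50 from 12-point series (10–0.00003 μM) by 4-parameter fit.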
As a reminder, the IC50 is the concentration that inhibits the measured activity by half. `[2H]C([2H])([2H])n1ccc2cc(Nc3cc(C)c(F)cn3)nc(NC(C)(C)CO)c2c1=O` [compound 1049]: the IC50 was 89.9 nM.
The same measure, in the same setting: then `CC(=O)c1ccnc(Nc2cc3ccn(CCO)c(=O)c3c(NC(C)(C)C)n2)c1` [compound 684], with 51 nM.
As for `Nc1ncc(-c2cc3ccn(C4COC4)c(=O)c3c(NC3CCC3)n2)cn1` [compound 772], the IC50 is 25 nM.
On to `CC(C)n1ccc2cc(Nc3cnccn3)nc(N[C@H]3CCC[C@H]3O)c2c1=O` [compound 980], for which the IC50 was found to be 36 nM.
With `CC(C)Nc1nc(Nc2cc(-c3cccnc3)ccn2)cc2ccn(C)c(=O)c12` [compound 1046], the IC50 is 113 nM.
As for `Cn1cc(Cl)c2cc(Nc3cnccn3)nc(N[C@H]3CC[C@@H](O)CC3)c2c1=O` [compound 785], the IC50 was found to be 144 nM.
As to `CC(C)(C)Nc1nc(Nc2cc(C(C)(C)N)ccn2)cc2ccn(CCO)c(=O)c12` [compound 711, 6-(4-(2-aminopropan-2-yl)pyridin-2-ylamino)-8-(tert-butylamino)-2-(2-hydroxyethyl)-2,7-naphthyridin-1(2H)-one], the IC50 came out at 197 nM.
Regarding `CC(C)(C)Nc1nc(Nc2cc(-c3ccn[nH]3)ccn2)cc2ccn(CCO)c(=O)c12` [compound 690, 6-(4-(1H-pyrazol-5-yl)pyridin-2-ylamino)-8-(tert-butylamino)-2-(2-hydroxyethyl)-2,7-naphthyridin-1(2H)-one], the IC50 came out at 67 nM.
On the same count and under the same terms, the same measure for `CCn1ccc2cc(-c3cnc(N)nc3)nc(NC3(CO)CCC3)c2c1=O` [compound 905]: less than 1.01 nM; for `CC(C)(O)Cn1ccc2cc(-c3cnc(N)nc3)nc(NC(C)(C)C)c2c1=O` [compound 928]: 44 nM.
With `Cc1c2ccc(Nc3nc(Nc4cnccn4)cc4ccn(CCO)c(=O)c34)cc2nn1C` [compound 656], the IC50 came out at 168 nM.
As for `CC(C)(C)Nc1nc(Nc2cc(C3=CCCCO3)ncn2)cc2ccn(CCO)c(=O)c12` [compound 624], the half-maximal inhibitory concentration (IC50) was determined as 590 nM.
As for `COCCNC(=O)c1ccc(Nc2nc(Nc3cc(C)ccn3)cc3ccn(C)c(=O)c23)cc1` [compound 652], the IC50 is 660 nM.
Still for that read-out and setting: then `CCn1ccc2cc(Nc3cnccn3)nc(N[C@H]3CC[C@H](O)C3)c2c1=O` [compound 946], with 17 nM.
As to `CC(C)(C)Nc1nc(Nc2cc(CO)ccn2)cc2ccn(CC(=O)O)c(=O)c12` [compound 875], the half-inhibitory concentration (IC50) came to 6 nM.
As for `CC(C)(C)Nc1nc(Nc2cc(C3CCCCC3)ncn2)cc2ccn(CCO)c(=O)c12` [compound 625], the IC50 was found to be 452 nM.
Same read-out and setting: the same measure for `CC(C)(C)Nc1nc(-c2cnc(N)nc2)cc2ccn(CC(O)CO)c(=O)c12` (centres unmarked) [compound 929]: 8 nM.
The same measure, in the same setting: then `Cn1cc(-c2ccnc(Nc3cc4ccn(CCO)c(=O)c4c(NC(C)(C)C)n3)c2)cn1` [compound 830], with 103 nM; and `CCn1ccc2cc(Nc3cc(C)ccn3)nc(N[C@@H]3CC[C@H](CO)C3)c2c1=O` [compound 794], with 94 nM.
With `Cc1ccnc(Nc2cc3ccn(CCO)c(=O)c3c(NC3CC3)n2)c1` [compound 817], the IC50 was 108 nM.
On the same count and under the same terms, the same measure for `CC1(Cn2ccc3cc(-c4cnc(N)nc4)nc(NC4COC4)c3c2=O)COC1` [compound 773, 6-(2-Aminopyrimidin-5-yl)-2-((3-methyloxetan-3-yl)methyl)-8-(oxetan-3-ylamino)-2,7-naphthyridin-1(2H)-one]: 67 nM.
Same read-out and setting: the same measure for `NC(=O)Cn1ccc2cc(-c3cnc(N)nc3)nc(NC3CCOCC3)c2c1=O` [compound 750]: 24 nM; for `CCn1ccc2cc(Nc3cnccn3)nc(NC3CCC(=O)CC3)c2c1=O` [compound 969]: 81 nM.

The assay is the same for the next values; noted with them: read-out: Syk Enzyme IC50.
For the compound `COc1cncc(-c2cc3cc[nH]c(=O)c3c(Nc3ccc(C4CCN(C(=O)N5CCCC5)CC4)c(C)c3)n2)n1` [compound 113], the IC50 amounted to 2320 nM.
As to `COCCNC(=O)c1ccc(Nc2nc(-c3cncc(OC)n3)cc3cc[nH]c(=O)c23)cc1` [compound 59], the IC50 is 168 nM.
`COc1cncc(-c2cc3cc[nH]c(=O)c3c(Nc3ccc(C4CCN(CC(=O)N(C)C)CC4)c(C)c3)n2)n1` [compound 167]: the IC50 was determined as 91 nM.
Still for that read-out and setting: then `Cc1ccnc(Nc2cc3ccn(C)c(=O)c3c(Nc3ccc(C4CCN(CCS(C)(=O)=O)CC4)cc3)n2)c1` [compound 311], with 496 nM; and `COc1cncc(-c2cc3cc[nH]c(=O)c3c(Nc3ccc(CCN4CCC(F)(F)CC4)cc3)n2)n1` [compound 44], with 638 nM.
On the same count and under the same terms, the same measure for `Cc1ccnc(Nc2cc3ccn(C)c(=O)c3c(Nc3cccc(S(N)(=O)=O)c3)n2)c1` [compound 352]: 294 nM; for `CCn1ccc2cc(Nc3cnccn3)nc(NC[C@@H]3CC[C@](C)(O)C3)c2c1=O` [compound 415]: 172 nM.
Still for that read-out and setting: the same measure for `CCN(CC)CCNC(=O)c1ccc(Nc2nc(Nc3cc(C)ccn3)cc3ccn(C)c(=O)c23)cc1` [compound 331]: 748 nM; for `Cc1n[nH]c2ncc(-c3cc4cc[nH]c(=O)c4c(Nc4ccc(N5CCOCC5)cc4)n3)cc12` [compound 192]: 263 nM.
Take `CCN1CCN(Cc2n[nH]c3cc(Nc4nc(-c5cnc(OC)nc5)cc5cc[nH]c(=O)c45)ccc23)CC1` [compound 204]: the IC50 is 48 nM.
For the compound `CCn1ccc2cc(Nc3cc(C)ccn3)nc(N[C@H]3CCC[C@H]3O)c2c1=O` [compound 420], the IC50 turned out to be 11 nM.
Same read-out and setting: the same measure for `O=c1[nH]ccc2cc(Nc3ccc(F)cn3)nc(Nc3ccc(N4CCOCC4)cc3)c12` [compound 576]: 4870 nM; for `CCn1ccc2cc(Nc3cc(C)ccn3)nc(N[C@@H]3CC[C@H](O)C3)c2c1=O` [compound 426]: 70.8 nM; for `Cc1cc(-c2cc3cc[nH]c(=O)c3c(Nc3ccc([C@H]4CC[C@H](N5CCOCC5)CC4)cc3)n2)cnc1N` [compound 100]: 193 nM.
On the same count and under the same terms, the same measure for `CCn1ccc2cc(Nc3cc(C)ccn3)nc(NC(C)(C)CO)c2c1=O` [compound 492]: 54 nM.
Still for that read-out and setting: the same measure for `Cc1cc(C)nc(Nc2cc3cc[nH]c(=O)c3c(Nc3ccc(C4CCN(C5CC5)CC4)c(C)c3)n2)c1` [compound 256]: 141 nM; for `COCC(=O)N1CCC(c2ccc(Nc3nc(-c4cncc(OC)n4)cc4cc[nH]c(=O)c34)cc2C)CC1` [compound 49]: 75 nM.
For `CCN1CCC[C@@H]1CNC(=O)c1ccc(Nc2nc(-c3cncc(OC)n3)cc3cc[nH]c(=O)c23)cc1` [compound 83], the concentration for half-maximal inhibition (IC50) was 14 nM.
`COC[C@H](C)Nc1nc(-c2cnc(N)nc2)cc2cc[nH]c(=O)c12` [compound 448]: the half-maximal inhibitory concentration (IC50) was determined as 125 nM.
Regarding `COc1cncc(-c2cc3cc[nH]c(=O)c3c(Nc3ccc(C4CN(CCO)C4)cc3)n2)n1` [compound 147], the IC50 was determined as 4 nM.
For the compound `COc1cncc(-c2cc3cc[nH]c(=O)c3c(Nc3ccc(C4CCN(C(=O)N(C)C)CC4)c(C)c3)n2)n1` [compound 177], the IC50 worked out at 496 nM.
On the same count and under the same terms, then `CCN(CC)CCNC(=O)c1ccc(Nc2nc(Nc3cnccn3)cc3ccn(C)c(=O)c23)cc1` [compound 338], with 1620 nM; and `COc1cncc(-c2cc3cc[nH]c(=O)c3c(Nc3ccc(C4CCN(C(=O)N5CCOCC5)CC4)c(C)c3)n2)n1` [compound 115], with 181 nM; and `Cc1ccnc(Nc2cc3ccn(C)c(=O)c3c(NC(C)(C)C)n2)c1` [compound 506], with 129 nM.
